From patent EP4245365B1, “A FXR SMALL MOLECULE AGONIST, THE PREPARATION AND USE THEREOF” (Cascade Pharmaceuticals, Inc., priority 2022, dated 2023)
Like-named read-outs stand apart in the source and are kept apart here.

Experiments:
FXR = target: T1, FXR (Homo sapiens, UniProt Q96RI1); assay: FXR agonistic activity by reporter gene (pGAL4-FXR-LBD / pG5-Luc, Dual-Glo luciferase) in HEK293T cells; format: cell-based
T1 construct: expressed in transfected cells; host or cells: HEK293T
T1 sequence (Q96RI1 212-476 isoform Q96RI1-1): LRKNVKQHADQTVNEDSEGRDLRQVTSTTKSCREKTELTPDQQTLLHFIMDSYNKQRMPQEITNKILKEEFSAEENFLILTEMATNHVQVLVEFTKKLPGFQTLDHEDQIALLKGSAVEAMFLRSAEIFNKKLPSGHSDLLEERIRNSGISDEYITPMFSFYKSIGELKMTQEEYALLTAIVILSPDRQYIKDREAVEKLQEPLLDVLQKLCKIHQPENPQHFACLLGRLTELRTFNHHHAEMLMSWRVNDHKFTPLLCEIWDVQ
Procedure: 1.2 Plasmid Co-transfection of HEK293T Cells and Compound Treatment HEK293T cells were seeded in 96-well plates at a density of 1×10^4/well one day before plasmid transfection. […] 2 duplicate wells were set up in total. […] The dose-response curves were fitted with four parameters using GraphPad Prism 6.0 software, and EC50 values were calculated.

[1] = mouse, in vivo, iv, 1 mg/kg
Procedure: (§1) In each group of embodiment, 6 male ICR mice with a similar body weight were selected, of which 3 mice were dosed orally in a single dose of 3 mg/kg, and 3 mice were dosed intravenously in a single dose of 1 mg/kg. Blood samples were collected at time points of 15 min, 30 min, 1 h, 2 h, 4 h and 7 h after administration. The concentrations of plasma samples were analyzed by LC-MS/MS.
(§2) 12 healthy male ICR mice, commercially available from Charles River with an animal production license NO.: 2021123 1Abzz0619000376, were divided into 4 groups, 3 in each group.
(§3) Formulation preparation: a certain amount of compounds were weighed and added into a 2% DMSO+15% Solutol+83% saline, to prepare a clear solution.
(§4) Dosage: ICR mice were fasted overnight and given each compound at an oral dose of 3 mg/kg or an intravenous dose of 1 mg/kg. The administrated volume for oral and intravenous administration are 10 mL/kg and 5 mL/kg, respectively.
(§5) Sample collection: About 30 µL of blood was collected via great saphenous vein at 15 min, 30 min, 1 h, 2 h, 4 h and 7 h after dosage. The blood was placed into a commercial tube containing K2-EDTA. Plasma samples were then obtained by centrifuging the blood samples at approximately 4°C, 4600 rpm for 5 minutes. All plasma samples were then quickly frozen on dry ice and kept at -70°C until LC-MS/MS analysis.
(§6) Sample preparation: 10 µL of plasma samples were precipitated by methanol containing 50 nmol/L of α-naphthoflavone as internal standard. The mixture was votex-mixed well and centrifuged at 14000 rpm for 5 min at 4°C. 75 µL of the supernatant was taken and mixed with 75 µL of methanol, and introduced for LC-MS/MS analysis.

in vivo = settings: mouse, po, 3 mg/kg
Procedure: as §1, §2, §3, §4, §5, §6

[2] = HEK293T cells co-transfected with pGAL4-FXR-LBD, pG5-Luc, phRL-TK, 24 h treatment, read-out: Cellular Level Activity EC50(nM) of FXR
[3] = Cellular Level Activity EC50(nM) of FXR, HEK293T cells co-transfected with pGAL4-FXR-LBD, pG5-Luc, phRL-TK, 24 h treatment
[4] = EC50 values (FXR agonistic activity), HEK293T reporter gene assay
[5] = HEK293T reporter gene assay, read-out: EC50 values (FXR agonistic activity)

Molecule `[2H]C([2H])(OC1CC2CCC(C1)N2c1ccc(-c2noc(=O)[nH]2)c(C(F)(F)F)c1)c1c(-c2c(Cl)cccc2Cl)noc1C1CC1` (stereo not shown) [Example 7] has an EC50 (FXR; [2]) of 5 to 10 nM.
With `[2H]C([2H])(OC1CC2CCC(C1)N2c1ccc(-c2noc(=O)[nH]2)c(F)c1)c1c(-c2ccccc2OC(F)(F)F)noc1C1CC1` (stereo not shown) [Example 9] the EC50 (FXR; [2]) was 5 to 10 nM.
In the case of `[2H]C([2H])(OC1CC2CCC(C1)N2c1ccc(-c2noc(=O)[nH]2)c(F)c1)c1c(-c2c(Cl)cccc2Cl)noc1C1CC1` (stereo not shown) [Example 3], the EC50 (FXR; [3]) is reported as less than 5 nM, the EC50 (FXR; [4]) is reported as less than 5 nM and the “FXR agonistic activity / cellular level activity (in words)” value (FXR; HEK293T reporter gene assay, comparison with LJN452 and Control 1) is reported as “significantly improved activity”.
`[2H]C([2H])(OC1CC2CCC(C1)N2c1ccc(-c2noc(=O)[nH]2)c(C)c1)c1c(-c2c(Cl)cccc2Cl)noc1C1CC1` (stereo not shown) [Example 5] showed an EC50 (FXR; [2]) of 5 to 10 nM.
`[2H]C([2H])(OC1CC2CCC(C1)N2c1ccc(-c2noc(=O)[nH]2)c(F)c1)c1c(-c2ccccc2C(F)(F)F)noc1C1CC1` (stereo not shown) [Example 8] showed an EC50 (FXR; [2]) of 5 to 10 nM.
In the case of `O=c1[nH]c(-c2ccc(N3[C@@H]4CC[C@H]3C[C@@H](OCc3c(-c5c(Cl)cccc5Cl)noc3C3CC3)C4)cc2F)no1` [Control 1, reference compound], the EC50 (FXR; [3]) is reported as 5 to 10 nM.
For `[2H]C([2H])(OC1CC2CCC(C1)N2c1ccc(-c2noc(=O)[nH]2)nc1)c1c(-c2c(Cl)cccc2Cl)noc1C1CC1` (stereo not shown) [Example 2], the EC50 (FXR; [2]) was less than 5 nM and the EC50 (FXR; [5]) was less than 5 nM.
With `[2H]C(OC1CC2CCC(C1)N2c1ccc(-c2noc(=O)[nH]2)c(F)c1)c1c(-c2c(Cl)cccc2Cl)noc1C1CC1` (stereo not shown) [Example 4] the EC50 (FXR; [3]) was less than 5 nM and the EC50 (FXR; [4]) was less than 5 nM.
`[2H]C([2H])(OC1CC2CCC(C1)N2c1ccc(-c2noc(=O)[nH]2)cc1)c1c(-c2c(Cl)cccc2Cl)noc1C1CC1` (stereo not shown) [Example 1] showed an EC50 (FXR; [2]) of less than 5 nM and an EC50 (FXR; [5]) of less than 5 nM.
With `O=c1[nH]c(-c2ccc(N3C4CCC3CC(OCc3c(-c5ccccc5C(F)(F)F)noc3C3CC3)C4)cc2F)no1` (stereo not shown) [Embodime nt 1] the “CL_obs” value [1] was 20.5 ± 4.6 mL/min/kg, the “Vss_obs” value [1] was 0.418 ± 0.076 L/kg and the AUC(0-t) at 7 h (in vivo) was 318 ± 172 ng·h/mL. The Cmax (in vivo) was 312 ± 140 ng/mL and the bioavailability (in vivo) was 12.6%.
With `[2H]C([2H])(O[C@H]1C[C@H]2CC[C@@H](C1)N2c1ccc(-c2noc(=O)[nH]2)c(F)c1)c1c(-c2ccccc2C(F)(F)F)noc1C1CC1` [Embodime nt 2] the “CL_obs” value [1] was 21.6 ± 2.4 mL/min/kg, the “Vss_obs” value [1] was 0.704 ± 0.033 L/kg and the AUC(0-t) at 7 h (in vivo) was 587 ± 54 ng·h/mL. For the same molecule, the Cmax (in vivo) was 555 ± 25 ng/mL and the bioavailability (in vivo) was 25.2%.
In the case of `[2H]C([2H])(OC1CC2CCC(C1)N2c1ccc(-c2noc(=O)[nH]2)c(OC)c1)c1c(-c2c(Cl)cccc2Cl)noc1C1CC1` (stereo not shown) [Example 6], the EC50 (FXR; [2]) is reported as 5 to 10 nM.
